Tests used:
Assay in all cases: relative viability (nuclei count vs DMSO), 5 days (fraction); higher = more cells survive
BAM7 + Trametinib = compound: CCOC1=CC=CC=C1N=NC2=C(NN(C2=O)C3=NC(=CS3)C4=CC=CC=C4)C [BAM7] + CC(=O)Nc1cccc(-n2c(=O)n(C3CC3)c(=O)c3c(Nc4ccc(I)cc4F)n(C)c(=O)c(C)c32)c1 [Trametinib] (partner 0.02 µM)
How it was run: (§1)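 Relative viability equals treated-well nuclei counts divided by vehicle-well nuclei counts. Counts came from 4× images of lung cancer cell lines grown in 1536-well plates for 5 days after pin-tool dosing on the day after seeding. Dosing used one drug alone or a fixed anchor-drug dose plus five library-drug doses (not always all listed) in √10 steps, and values are medians of duplicate plates.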

BAM7 + Palbociclib = compound: CCOC1=CC=CC=C1N=NC2=C(NN(C2=O)C3=NC(=CS3)C4=CC=CC=C4)C [BAM7] + CC(=O)c1c(C)c2cnc(Nc3ccc(N4CCNCC4)cn3)nc2n(C2CCCC2)c1=O [Palbociclib] (partner 0.5 µM)
How it was run: as §1

BAM7 + Navitoclax = compound: CCOC1=CC=CC=C1N=NC2=C(NN(C2=O)C3=NC(=CS3)C4=CC=CC=C4)C [BAM7] + CC1(C)CCC(c2ccc(Cl)cc2)=C(CN2CCN(c3ccc(C(=O)NS(=O)(=O)c4ccc(N[C@H](CCN5CCOCC5)CSc5ccccc5)c(S(=O)(=O)C(F)(F)F)c4)cc3)CC2)C1 [Navitoclax] (partner 0.5 µM)
How it was run: as §1

BAM7 + Linsitinib = compound: CCOC1=CC=CC=C1N=NC2=C(NN(C2=O)C3=NC(=CS3)C4=CC=CC=C4)C [BAM7] + C[C@]1(O)C[C@@H](c2nc(-c3ccc4ccc(-c5ccccc5)nc4c3)c3c(N)nccn32)C1 [Linsitinib] (partner 1 µM)
How it was run: as §1

BAM7 + Dasatinib = compound: CCOC1=CC=CC=C1N=NC2=C(NN(C2=O)C3=NC(=CS3)C4=CC=CC=C4)C [BAM7] + Cc1nc(Nc2ncc(C(=O)Nc3c(C)cccc3Cl)s2)cc(N2CCN(CCO)CC2)n1 [Dasatinib] (partner 0.075 µM)
How it was run: as §1

Row | Cell Line | relative viability (BAM7 + Trametinib; first compound 0.5 µM) | relative viability (BAM7 + Trametinib; first compound 5 µM) | relative viability (BAM7 + Trametinib; first compound 15.81 µM) | relative viability (BAM7 + Trametinib; first compound 50 µM) | relative viability (BAM7 + Palbociclib; first compound 0.5 µM) | relative viability (BAM7 + Palbociclib; first compound 5 µM) | relative viability (BAM7 + Palbociclib; first compound 15.81 µM) | relative viability (BAM7 + Palbociclib; first compound 50 µM) | relative viability (BAM7 + Navitoclax; first compound 0.5 µM) | relative viability (BAM7 + Navitoclax; first compound 5 µM) | relative viability (BAM7 + Navitoclax; first compound 15.81 µM) | relative viability (BAM7 + Navitoclax; first compound 50 µM) | relative viability (BAM7 + Linsitinib; first compound 0.5 µM) | relative viability (BAM7 + Linsitinib; first compound 5 µM) | relative viability (BAM7 + Linsitinib; first compound 15.81 µM) | relative viability (BAM7 + Linsitinib; first compound 50 µM) | relative viability (BAM7 + Dasatinib; first compound 0.5 µM) | relative viability (BAM7 + Dasatinib; first compound 5 µM) | relative viability (BAM7 + Dasatinib; first compound 15.81 µM) | relative viability (BAM7 + Dasatinib; first compound 50 µM)
1 | NCI-H1792 | 0.46 | 0.462 | 0.401 | 0.362 | 0.642 | 0.687 | 0.624 | 0.66 | 0.621 | 0.691 | 0.783 | 0.61 | 0.64 | 0.54 | 0.542 | 0.628 | 0.827 | 0.833 | 0.665 | 0.822
2 | NCI-H1793 | 0.407 | 0.473 | 0.385 | 0.483 | 0.252 | 0.291 | 0.251 | 0.34 | 0.401 | 0.565 | 0.437 | 0.411 | 0.971 | 1.15 | 0.653 | 0.789 | 0.375 | 0.424 | 0.431 | 0.388
3 | NCI-H1915 | 0.333 | 0.317 | 0.272 | 0.323 | 0.598 | 0.548 | 0.516 | 0.501 | 0.756 | 0.776 | 0.803 | 0.807 | 1.08 | 1.2 | 1.08 | 1.1 | 0.321 | 0.327 | 0.279 | 0.303
4 | NCI-H1944 | 0.444 | 0.433 | 0.434 | 0.439 | 0.365 | 0.366 | 0.281 | 0.37 | 1.07 | 1.14 | 0.875 | 0.882 | 1.3 | 1.36 | 1.13 | 1.07 | 0.217 | 0.234 | 0.225 | 0.279
5 | NCI-H1975 | 0.329 | 0.366 | 0.332 | 0.415 | 0.565 | 0.555 | 0.519 | 0.652 | 0.9 | 1.1 | – | 0.862 | 0.847 | 0.981 | – | 0.898 | 0.309 | 0.341 | 0.3 | 0.296
6 | NCI-H1993 | 0.456 | 0.524 | 0.479 | 0.506 | 0.502 | 0.539 | 0.453 | 0.478 | 0.819 | 0.899 | 0.739 | 0.813 | 0.688 | 0.724 | 0.701 | 0.742 | 0.492 | 0.541 | 0.502 | 0.575
7 | NCI-H2009 | 0.265 | 0.229 | 0.268 | 0.283 | 0.189 | 0.189 | 0.228 | 0.29 | 1.25 | 1.17 | 1.15 | 1.17 | 1.27 | 1.2 | 1.15 | 1.16 | 0.291 | 0.283 | 0.265 | 0.275
8 | NCI-H2023 | 0.525 | 0.437 | 0.398 | 0.49 | 0.375 | 0.316 | 0.293 | 0.327 | 1.04 | 0.888 | 0.886 | 0.982 | 0.657 | 0.689 | 0.64 | 0.67 | 0.519 | 0.465 | 0.393 | 0.481

Source: the supplement of paper PMC10307832
